Data taken from patent US20100285095A1 (priority 2009, published 2010).
“And” between values parts separate entries of the source, which are not always exact repeats. Identical values can stand only once. Like-named read-outs stand apart in the source and are kept apart here.

Key:
S. aureus MN 8 = type: cell-based, Staphylococcus aureus
physchem = conditions: 25 °C, water
[1] = % reduction per mM Ca added, Ca 4.0 mM added to shake flask
[2] = % reduction per mM Ca added, higher concentrations, Ca (mM) as in Table 2: chloride 75.6, stearate 98.8, lactate 53.1, citrate malate 22.6, glycerate 39.7, gluconate 38.4, α-D-heptagluconate 38.1
[3] = % reduction per mM Ca added, low concentrations, Ca (mM) as in Table 1: chloride 15.1, stearate 9.9, lactate 8.8, citrate malate 6.8, glycerate 4.0, gluconate 3.8, α-D-heptagluconate 3.8
[4] = reduction of TSST-1 vs. PBS and BHI control, low concentrations, Ca (mM) added to shake flask: calcium chloride 15.1, calcium stearate 9.9 (solid added directly into the media), calcium lactate 8.8, calcium citrate malate 6.8, calcium glycerate 4.0, calcium gluconate 3.8, calcium α-D-heptagluconate 3.8

Molecule	% TSST-1 Change (μg/ml/mM) vs. control (S. aureus MN 8; [1])	% TSST-1 Change (μg/ml/mM) vs. control (S. aureus MN 8; [2])	% TSST-1 Change (μg/ml/mM) vs. control (S. aureus MN 8; [3])	% TSST-1 Change (μg/mL) vs. control (S. aureus MN 8; [4])	other results
O=C(O)C(O)CO (racemic) [calcium glycerate]	17.0%	–	–	–	–
O=C([O-])C(O)CO.O=C([O-])C(O)CO.[Ca+2] [calcium D-glycerate]	22.9%	–	–	–	–
O=C([O-])[C@@H](O)CO.O=C([O-])[C@@H](O)CO.[Ca+2] [calcium L-glycerate]	15.3%	–	–	–	–
[Ca+2].[Cl-].[Cl-] [calcium chloride, reference compound]	–	1.1%	2.5%	37%	–
O=C(O)C(O)CO (stereo not drawn) [calcium glycerate]	–	2.5%	17.0%	68%	solubility (physchem): 349 mM
CC(O)C(=O)[O-].CC(O)C(=O)[O-].[Ca+2] (stereo not drawn) [calcium lactate, reference compound]	–	1.7%	5.6%	49%	–
O=C([O-])C(O)[C@H](O)[C@@H](O)[C@H](O)[C@H](O)CO.O=C([O-])C(O)[C@H](O)[C@@H](O)[C@H](O)[C@H](O)CO.[Ca+2] (stereo partly drawn) [calcium α-D-heptagluconate]	–	–	–	–	% TSST-1 Change (μg/mL) vs. control (S. aureus MN 8): 47%; % TSST-1 Change (μg/ml/mM) vs. control (S. aureus MN 8): 12.5% and 2.6%
calcium citrate malate [reference compound]	–	3.9%	13.1%	89%	–
calcium gluconate	–	2.5%	21.3%	81%	–
calcium stearate [reference compound]	–	0.6%	6.6%	65%	–
